Measured values published in patent publication US8735609B2, “Bryostatin analogues, synthetic methods and uses” (The Board of Trustees of the Leland Stanford Junior …, priority 2007, dated 2014).

How the values were obtained:
[1] = test system: HCT-15; assay: NCI human cancer cell line growth inhibition: HCT-15 (Colon); format: cell-based; details: Homo sapiens
[2] = test system: SW-620; assay: NCI human cancer cell line growth inhibition: SW-620 (Colon); format: cell-based; details: Homo sapiens
[3] = test system: HCT-116; assay: NCI human cancer cell line growth inhibition: HCT-116 (Colon); format: cell-based; details: Homo sapiens
[4] = test system: SNB-19; assay: NCI human cancer cell line growth inhibition: SNB-19 (CNS); format: cell-based; details: Homo sapiens
[5] = test system: KM12; assay: NCI human cancer cell line growth inhibition: KM12 (Colon); format: cell-based; details: Homo sapiens
[6] = test system: T-47D; assay: NCI human cancer cell line growth inhibition: T-47D (Breast); format: cell-based; details: Homo sapiens, T47D
[7] = test system: HOP-62; assay: NCI human cancer cell line growth inhibition: HOP-62 (NSC Lung); format: cell-based; details: Homo sapiens
[8] = test system: EKVX; assay: NCI human cancer cell line growth inhibition: EKVX (NSC Lung); format: cell-based; details: Homo sapiens
[9] = test system: A549/ATCC; assay: NCI human cancer cell line growth inhibition: A549/ATCC (NSC Lung); format: cell-based; details: Homo sapiens
[10] = test system: 786-0; assay: NCI human cancer cell line growth inhibition: 786-0 (Renal); format: cell-based; details: Homo sapiens
[11] = test system: SF-268; assay: NCI human cancer cell line growth inhibition: SF-268 (CNS); format: cell-based; details: Homo sapiens
[12] = test system: IGROVI; assay: NCI human cancer cell line growth inhibition: IGROVI (Ovarian); format: cell-based; details: Homo sapiens
[13] = test system: HL-60(TB); assay: cells; format: cell-based, human; details: Homo sapiens, HL-60, read-out: Growth inhibition (GI50)
[14] = test system: OVCAR-4; assay: NCI human cancer cell line growth inhibition: OVCAR-4 (Ovarian); format: cell-based; details: Homo sapiens
[15] = test system: CAKI-1; assay: NCI human cancer cell line growth inhibition: CAKI-1 (Renal); format: cell-based; details: Homo sapiens
[16] = test system: NCI/ADR-RES; format: cell-based, human; details: Homo sapiens, Breast, read-out: Growth inhibition (GI50) (converted)
[17] = test system: PC-3; assay: NCI human cancer cell line growth inhibition: PC-3 (Prostate); format: cell-based; details: Homo sapiens
[18] = test system: A498; assay: NCI human cancer cell line growth inhibition: A498 (Renal); format: cell-based; details: Homo sapiens

**Q.** What does the source list for `CCCCCCCC(=O)O[C@H]1/C(=C/C(=O)OC)C[C@H]2C[C@H](CO)OC(=O)C[C@H](O)C[C@@H]3CCC[C@H](C[C@@H]4CCO[C@H](/C=C/C(C)(C)[C@]1(O)O2)O4)O3` [Formula IIa (702.1)]?
**A.** GI50 [1]: 17.4 µM; GI50 [2]: 7.59 µM; GI50 [3]: 4.79 µM; GI50 [4]: 6.31 µM; GI50 [5]: 4.57 µM; GI50 [6]: 9.55 µM; GI50 [7]: 16.2 µM; GI50 [8]: 2.63 µM; GI50 [9]: 0.24 µM; GI50 [10]: 3.47 µM; GI50 [11]: 10.7 µM; GI50 [12]: 13.2 µM; GI50 [13]: 1.45 µM; GI50 [14]: 7.08 µM; GI50 [15]: 2 µM; GI50 [16]: 18.2 µM; GI50 [17]: 2.51 µM; GI50 [18]: 0.417 µM
